Assays:
[1] = system: 25+ potential off-targets; assay: Reaction Bio InVEST off-target panel; conditions: duplicate; significance = 50% or greater inhibition in both replicates
Description: This assay utilizes colorimetry to monitor the activity of acetylcholinesterase (AChE). Enzyme activity is measured by the conversion of acetylthiocholine to thiocholine, which is detected through an enhanced Ellman’s reaction. In each well, 20 μL of Assay Buffer (75.4 mM Na2HPO4, 24.6 mM NaH2PO4, pH 7.5) was added to wells designated as background/control (no enzyme). Subsequently, 20 μL of 0.2 U/mL AChE was added to the remaining wells. The reaction mixture was incubated at room temperature for 15 minutes on a shaker to allow for enzyme and drug interaction. To initiate the improved Ellman’s reaction, 30 μL of buffer containing 650 μM DTNB and 650 μM acetylthiocholine was added to each well. The color intensity, which is proportional to enzyme activity, was measured at 412 nm using an Envision 2105 plate reader.
The peroxidase activity is measured colorimetrically by monitoring the appearance of oxidized TMPD at 590 nm. […] Absorbance was then measured at 590 nm using an Envision 2105 plate reader (Revvity).
This assay uses fluorescence polarization to monitor binding to the hERG channel. […] Fluorescence polarization was measured at Ex/Em = 531 nm FP/595 nm P & S, and mP values were calculated.
The ADP-Glo™ assay is a luminescent method used to monitor ADP-producing biochemical reactions. […] Luminescence was then measured. […]

[2] = biological target: T1, hemoglobin (Hb) in human red blood cells (Homo sapiens, UniProt P69905); assay: Oxy-hemoglobin dissociation curve (Hemox Analyzer), p50; type: biochemical
T1 construct: incubated for at least one hour at 37C with whole blood before Hemox analysis; endogenous in cells; host or cells: human red blood cells / whole blood
Description: One of the most extensively studied compounds for sickle cell anemia is GBT-440 (Voxelotor) (Figure 1B).[25] The extent of left-shifting can be assessed by determining the p50 or the partial pressure of oxygen at which half of the total Hb pool is bound to oxygen. We incubated human red blood cells with GBT-440 and observed a ~75% decrease in p50 (from ~28 to ~7 mmHg), consistent with previously reported values (Figure 1D). Experiments were performed using a HemOx analyzer that monitors oxygen saturation via Hb absorbance across a range of dissolved oxygen tensions. Upon further review of the sickle cell anemia literature, we found another compound, hereafter termed HypoxyStat (Figure 1B), which appeared to have a similar p50 as GBT-440.[26] We confirmed that HypoxyStat induced an ~82% decrease in p50 (Figure 1D).
Oxy-hemoglobin dissociation analysis was performed by the UCSF RBC laboratory using the TCS Hemox Analyzer (TCS Medical Products Company, Huntington Valley, PA). Initial pO2 is set to 160 mmHg. Hemoglobin is fully oxygenated under these conditions (HbO% =100). Replacement of air with nitrogen lowers pO2 and is measured by Clark electrode along with the change in the absorbance spectrum of hemoglobin. At a pO2 of 0 mmHg, hemoglobin is fully deoxygenated (HbO% =0). The relation between pO2 and HbO% is plotted, and the pO2 at which HbO% = 50% is defined as P50. The typical sigmoid de-oxygenation curve of normal blood with a P50 of 26–28 mmHg is used as a control for incubation conditions and to ensure proper function of the Hemox analyzer. For left-shifter comparison, the compounds were dissolved in HEPES buffered saline and then incubated for at least one hour at 37C with whole blood before Hemox analysis. A control of whole blood incubated with vehicle is also reported.

Ndufs4 KO mouse = Ndufs4 KO mouse model of Leigh syndrome (survival, body weight, temperature, behavior, neuropathology); type: in vivo; conditions: daily HypoxyStat initiated at P50

T1 sequence (P69905 2-142 limits assumed): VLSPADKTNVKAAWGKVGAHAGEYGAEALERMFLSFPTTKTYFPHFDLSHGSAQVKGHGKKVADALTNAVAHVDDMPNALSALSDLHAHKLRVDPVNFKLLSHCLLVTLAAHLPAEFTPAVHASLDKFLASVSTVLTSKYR
T1 sequence (P68871 2-147 partner limits assumed): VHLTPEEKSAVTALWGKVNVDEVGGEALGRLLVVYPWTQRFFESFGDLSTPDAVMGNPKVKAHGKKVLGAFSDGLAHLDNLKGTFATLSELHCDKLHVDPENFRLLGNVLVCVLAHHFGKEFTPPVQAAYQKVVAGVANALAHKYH

Compound: O=Cc1ccccc1C(=O)N1CCCC[C@H]1COc1cccc(O)c1C=O [HypoxyStat]
- off-target inhibition or binding, InVEST panel [1]: All tests were negative
- p50 ([2]; human red blood cells incubated 1 h with 10 mM compound, vehicle ~28 mmHg): 5.6 mmHg
- decrease in p50 ([2]; human red blood cells incubated with compound, vs vehicle): ~ 82%
- reversal of body weight loss, impaired behavior and neurological lesions in late-stage KO mice (Ndufs4 KO mouse): reversed multiple other disease presentations
- lifespan of late-stage Ndufs4 KO mice (Ndufs4 KO mouse; p < 0.05 Mantel-Cox): significantly extended the lifespan
